Bridge positions count the residues as written; N and C are the ends. Square brackets hold non-standard residues; d marks the D form. Peptide text beside a SMILES is read from it. S5 = C=CCCC[C@](C)(N)C(=O)O
Columns and labels:
[1] = test system: mice with bleomycin-induced pulmonary fibrosis; assay: Survival rate of mice with bleomycin-induced pulmonary fibrosis; type: in vivo, C57BL/6 mice; conditions: Table 3 groups: 2 mg/kg i.p., 10th to 28th day after modeling, twice a week
Protocol: Male C57BL/6 mice were fasted overnight, then anesthetized with 45 mg/kg sodium pentobarbital by injection intraperitoneally (i.p.), and intratracheally injected with bleomycin at a dose of 3 U/kg. The specific operation steps are as follows: cut the neck skin of the mouse with as little trauma as possible, expose the trachea with the assistance of elbow ophthalmic forceps, puncture the trachea and inject about 50 μL of bleomycin into the trachea with a microsyringe, rotate the mouse quickly and stand it upright for 5 minutes in order to make bleomycin evenly enter the left and right lobe, thereby constructing an animal model. The whole operation was performed at a surgical table at about […]. Mice in the sham operation group were intratracheally injected with an equal amount of physiological saline for injection.
The animal model with pulmonary fibrosis was prepared according to the method described in Example 2. The peptide therapy was started from the 10th day after modeling (the treatment groups are shown in Table 3), and the time was calculated from the 10th day after modeling to count the mortality rate. The death situation of each group of experimental animals was counted and calculated daily. […] The survival rate is the percentage of the number of mice that survived accounting for the number of mice in the whole group. Results are shown in FIG. 6-1, FIG. 6-2 and Table 4. […] In FIG. 6-1 and FIG. 6-2, “##” represents that P value is less than 0.01 when the survival rate of administration group was compared with that of the sham operation group; “*” represents that P value is less than 0.05 when the survival rate of administration group was compared with that of the bleomycin group; “**” represents that P value is less than 0.01 when the survival rate of administration group was compared with that of bleomycin group; and “i.p.” refers to intraperitoneal injection.
The animal model of pulmonary fibrosis was prepared according to the method described in Example 2. The polypeptide treatment was started from the 10th day after modeling (the treatment groups are shown in Table 9), and the time was calculated from the 10th day after modeling to count the mortality rate. The mortality rate of each group of experimental animals was recorded and calculated daily. If none of the animals in a group died, the survival rate of the group is 100%. If all the animals in a group died, the survival rate is 0%. […] In FIG. 12, “##” represents that P value is less than 0.01 when the survival rate of the administration groups were compared with that of the sham operation group; “*” represents that P value is less than 0.05 and “**” represents that P value is less than 0.01 when the survival rate of the administration groups were compared with bleomycin group.

[2] = target: T1, TRB3/MDM2 protein interaction (Homo sapiens, UniProt Q96RU7); assay: Co-immunoprecipitation: inhibition of binding of MDM2 to TRB3 in BEAS-2B cells; type: cell-based; conditions: BEAS-2B cells with TRB3 expression plasmid, 1 mg/mL polypeptide, 12 hours, co-IP with MDM2 antibody
T1 construct: host or cells: BEAS-2B
T1 sequence (Q96RU7 1-358): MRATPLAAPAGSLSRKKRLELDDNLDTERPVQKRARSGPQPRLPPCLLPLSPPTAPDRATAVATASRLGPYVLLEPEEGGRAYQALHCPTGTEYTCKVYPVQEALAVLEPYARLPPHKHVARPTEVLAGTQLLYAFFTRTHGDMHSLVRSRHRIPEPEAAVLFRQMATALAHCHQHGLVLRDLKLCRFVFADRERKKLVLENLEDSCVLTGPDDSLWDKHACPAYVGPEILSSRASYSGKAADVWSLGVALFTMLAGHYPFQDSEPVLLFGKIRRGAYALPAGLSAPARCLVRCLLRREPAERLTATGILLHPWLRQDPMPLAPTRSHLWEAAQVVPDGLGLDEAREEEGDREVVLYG
Protocol: 1. Human lung epithelial BEAS-2B cells (purchased from Institute of Basic Medical Sciences, Chinese Academy of Medical Sciences) were seeded in a 90 mm^2 culture dish. After the cells were adhered to the wall of culture dish, the TRB3 expression plasmid were transferred to the cells according to the method described in Example 5. After 24 hours, 1 mg/mL of the polypeptides MR2, S1, S2, S3, S4, S5, S6, S7, S8, S9, S10 or S11 prepared in Example 1 were added respectively, and the cells were incubated for 12 hours in a 37° C. incubator and then harvested.
2. Co-immunoprecipitation with MDM2 antibody was performed according to the method described in Example 3, followed by detection using TRB3 antibody.

SMILES	Survival rate (%) 7 days [1]	Survival rate (%) 14 days [1]	Survival rate (%) 21 days [1]	Survival rate (%) 28 days [1]	interaction of TRB3 and MDM2 protein (FIG. 5, in words) [2]
CSCC[C@H](NC(=O)[C@H](CC(C)C)NC(=O)[C@@H](N)Cc1c[nH]cn1)C(=O)N[C@@H](C)C(=O)N[C@@H](CS)C(=O)N[C@@H](Cc1ccccc1)C(=O)N[C@@]1(C)CCCC=CCCC[C@@](C)(C(=O)N[C@@H](CC(C)C)C(=O)N[C@@H](CCCCN)C(=O)N[C@@H](CCCCN)C(=O)N[C@@H](CCCNC(=N)N)C(=O)O)NC(=O)[C@H](CCCCN)NC(=O)[C@H](C)NC(=O)[C@H](CS)NC1=O [S7, His-Leu-Met-Ala-Cys-Phe-S5-Cys-Ala-Lys-S5-Leu-Lys-Lys-Arg] (H-HLMACF[S5]CAK[S5]LKKR-OH; staple 7-11; N-terminus and C-terminus assumed)	100%	100%	93.33%	93.33%	interrupted
CSCC[C@H](NC(=O)[C@H](CC(C)C)NC(=O)[C@@H](N)Cc1c[nH]cn1)C(=O)N[C@@H](C)C(=O)N[C@@H](CS)C(=O)N[C@@H](Cc1ccccc1)C(=O)N[C@H](C(=O)N[C@@]1(C)CCCC=CCCC[C@@](C)(C(=O)N[C@@H](CCCCN)C(=O)N[C@@H](CCCCN)C(=O)N[C@@H](CCCNC(=N)N)C(=O)O)NC(=O)[C@H](CCCCN)NC(=O)[C@H](CCCCN)NC(=O)[C@H](C)NC1=O)[C@@H](C)O [S8, His-Leu-Met-Ala-Cys-Phe-Thr-S5-Ala-Lys-Lys-S5-Lys-Lys-Arg] (H-HLMACFT[S5]AKK[S5]KKR-OH; staple 8-12; N-terminus and C-terminus assumed)	100%	100%	93.33%	86.67%	interrupted
CSCC[C@H](NC(=O)[C@H](CC(C)C)NC(=O)[C@@H](N)Cc1c[nH]cn1)C(=O)N[C@@H](C)C(=O)N[C@@H](CS)C(=O)N[C@@H](Cc1ccccc1)C(=O)N[C@H](C(=O)N[C@@H](CS)C(=O)N[C@@]1(C)CCCC=CCCC[C@@](C)(C(=O)N[C@@H](CCCCN)C(=O)N[C@@H](CCCNC(=N)N)C(=O)O)NC(=O)[C@H](CC(C)C)NC(=O)[C@H](CCCCN)NC(=O)[C@H](CCCCN)NC1=O)[C@@H](C)O [S9, His-Leu-Met-Ala-Cys-Phe-Thr-Cys-S5-Lys-Lys-Leu-S5-Lys-Arg] (H-HLMACFTC[S5]KKL[S5]KR-OH; staple 9-13; N-terminus and C-terminus assumed)	100%	93.33%	93.33%	93.33%	interrupted
CSCC[C@H](NC(=O)[C@H](CC(C)C)NC(=O)[C@@H](N)Cc1c[nH]cn1)C(=O)N[C@@H](C)C(=O)N[C@@H](CS)C(=O)N[C@@H](Cc1ccccc1)C(=O)N[C@H](C(=O)N[C@@H](CS)C(=O)N[C@@H](C)C(=O)N[C@@]1(C)CCCC=CCCC[C@@](C)(C(=O)N[C@@H](CCCNC(=N)N)C(=O)O)NC(=O)[C@H](CCCCN)NC(=O)[C@H](CC(C)C)NC(=O)[C@H](CCCCN)NC1=O)[C@@H](C)O [S10, His-Leu-Met-Ala-Cys-Phe-Thr-Cys-Ala-S5-Lys-Leu-Lys-S5-Arg] (H-HLMACFTCA[S5]KLK[S5]R-OH; staple 10-14; N-terminus and C-terminus assumed)	100%	93.33%	80%	80%	interrupted
CSCC[C@H](NC(=O)[C@H](CC(C)C)NC(=O)[C@@H](N)Cc1c[nH]cn1)C(=O)N[C@@H](C)C(=O)N[C@@H](CS)C(=O)N[C@@H](Cc1ccccc1)C(=O)N[C@H](C(=O)N[C@@H](CS)C(=O)N[C@@H](C)C(=O)N[C@@H](CCCCN)C(=O)N[C@@]1(C)CCCC=CCCC[C@@](C)(C(=O)O)NC(=O)[C@H](CCCCN)NC(=O)[C@H](CCCCN)NC(=O)[C@H](CC(C)C)NC1=O)[C@@H](C)O [S11, His-Leu-Met-Ala-Cys-Phe-Thr-Cys-Ala-Lys-S5-Leu-Lys-Lys-S5] (H-HLMACFTCAK[S5]LKK[S5]-OH; staple 11-15; N-terminus and C-terminus assumed)	100%	93.33%	86.67%	86.67%	interrupted
